Reference: US20230393140A1, “BINDING ASSAYS INVOLVING A PLURALITY OF SYNTHETIC COMPOUNDS, TARGETS, AND COUNTER TARGETS” (SRI International, priority 2020, published 2023)
Numbered stars: 1 amine (or outer) side, 2 acyl side, 3 side chain; on linkers, the order of the positions; unused ones are H or OH. Square brackets hold non-standard residues; d marks the D form. Ends that are not written are not given here. Peptide text beside a SMILES is read from it. * marks the point of attachment. 5FAM = O=C1OC2(c3ccc(O)cc3Oc3cc(O)ccc32)c2ccc(C(=O)*)cc21; NHCH2C6H4(4-CH2CONH2) = NC(=O)Cc1ccc(CN*)cc1; X1 = O=C(Cc1ccc(CN[*:1])cc1)[*:2]

Tests used:
K-Ras = biological target: T1, K-Ras (Homo sapiens, UniProt P01116, G12V); assay: MST binding affinity of resynthesized NNP hits to K-Ras; conditions: read-out: KD (nM) [95% conf. int]; MST; NNP1 library hit; target K-Ras; one-site binding model
T1 construct: purchased Cytoskeleton Inc. CS-RS04
Method in brief: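 K-Ras G12V was GTP-loaded (EDTA exchange, 750 μM GTP, 2 h at 30° C, then MgCl2) and labeled with maleimide-647 dye. MST was run at room temperature in 20 mM HEPES pH 7.4, 150 mM NaCl, 10 mM MgCl2, 0.05% Tween-20, 1 mM DTT. Incubations lasted 15, 30 and 45 min; triplicate data fitted for affinity.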

[1] = system: HepG2 cells (high ASGPR expressing); assay: ASGPR uptake assay, flow cytometry, HepG2; format: cell-based, human; conditions: fluorescein-labeled compounds, flow cytometry, 2 hours
Description: (§1) The HEK293T (human embryonic kidney cells) and human hepatoma HepG2 cells were grown according to the protocols provided by the American Type Culture Collection (ATCC). When cells reached cell were seeded at ˜1.5×10^5 cells/well in 24-well culture plate for the uptake assay. After at least 16 hours of culture to allow cell attach and equilibrate, the compound treatment was set up for the uptake assay.
(§2) The fluorescein-labeled NNPs or fluorescein-labeled N-acetylgalactosamine (GalNAc) recognizing ASGRPR were added to wells at indicated concentrations and incubated for 2 hours. Two plates were prepared for each treatment condition, one serving as 4 degrees C. no internalization control that was kept on ice during incubation, while the second plate was incubated at 37 degrees C. to allow for energy dependent internalization. Following the incubation period, all plates were placed on ice and washed three times with ice-cold PBS/3% BSA/2 mM EDTA and then lifted with trypsin. Cells were transferred to a 96-well round bottom plates in FACS buffer. Cells were then analyzed by flow cytometry using LSR-HJ with HTS sampler (BD Biosciences, San Jose, CA, USA). Data (mean fluorescence intensities) and further analyzed using Flowjo software (BD Biosciences, San Jose, CA, USA). The internalized fraction was expressed as the difference between the corresponding 4 degrees C. and 37 degrees C. MFIs as previously described.

[2] = system: HEK293 cells (non-expressing); assay: ASGPR uptake assay, flow cytometry, HEK293; format: cell-based, human; conditions: fluorescein-labeled compounds
Description: as §1
as §2, with “MFIs as previously described.” left out

[3] = format: in vitro ADME; conditions: 17 h
Description: For human plasma stability, lyophilized human plasma was reconstituted in sterile water for injection, aliquoted into 200 uL aliquots and stored frozen at −80 degrees C. prior to the stability studies. For the stability studies three aliquots per NNP were thawed at room temperature. An additional set of three aliquots for a positive control peptide (Angiotensin I) were also thawed. The incubations for the plasma stability were initiated by mixing 2 uL of a 2 mM stock solution of NNP IL6R-87-8 or positive control in DMSO with the 200 uL thawed plasma aliquot. After briefly vortex-mixing, 50 uL zero-time-point samples were removed, mixed with 50 uL of water and 400 uL of acetonitrile and frozen on dry ice until all time point samples had been collected. The samples were incubated at 37 degrees C. with samples removed and water/acetonitrile added at 1 hour, 3 hours, and 17 hours. Proteins were precipitated by centrifuging the samples at 17,000 G, 4 degrees C. for 1 hour. The supernatants were removed and concentrated in a centrifugal vacuum concentrator (GeneVac Genie II) at 45 degrees C. until the volume had been reduced to around 60 uL. […]

Row | Stability in human plasma [3] | Molecule | Kd (K-Ras) [nM] | Internalization (cell uptake) in HepG2 [1] | Internalization (cell uptake) in HEK293 [2]
1 |  | CC(C)C[C@@H](NC(=O)[C@@H](CCC(=O)O)NC(=O)[C@@H](C)NC(=O)Cc1ccc(CNC(=O)[C@H](Cc2ccccc2)NC(=O)[C@@H](CCCNC(=N)N)NC(=O)[C@@H](Cc2ccc(O)cc2)NC(=O)[C@@H](CCCCN)NC(=O)[C@H]2CCCN2C(=O)Cc2ccc(CNC(=O)CNC(=O)[C@@H](CCCNC(=N)N)NC(=O)[C@@H](CCC(=O)O)NC(=O)[C@@H](CO)NC(=O)[C@H]3CCCN3C(=O)Cc3ccc(CNC(=O)[C@H](C)NC(=O)[C@@H](CCCNC(=N)N)NC(=O)[C@H]4CCCN4C(=O)[C@H](NC(=O)CNC(=O)Cc4ccc(CNC(=O)[C@H](Cc5ccccc5)NC(=O)[C@@H](CCC(=O)O)NC(=O)[C@@H](Cc5c[nH]cn5)NC(=O)[C@H]5CCCN5C(=O)[C@@H](CO)NC(=O)c5ccc6c(c5)C(=O)OC65c6ccc(O)cc6Oc6cc(O)ccc65)cc4)C(C)C)cc3)cc2)cc1)C(=O)N[C@H](CCCCN)C(=O)N[C@@H](C)C(=O)NCc1ccc(CC(=O)NCC(=O)N[C@H](Cc2c[nH]c3ccccc23)C(=O)N[C@H](Cc2c[nH]cn2)C(=O)N[C@H](CCCNC(=N)N)C(=O)N[C@@H](C)C(=O)NCc2ccc(CC(N)=O)cc2)cc1 [KRAS-1-14] (5FAM-[dS][dP][dH][dE]F[X1]G[dV][dP][dR]A[X1][dP][dS][dE][dR]G[X1][dP][dK][dY][dR]F[X1][dA][dE][dL][dK]A[X1]G[dW][dH][dR]A-{NHCH2C6H4(4-CH2CONH2)}) | 155 | minimal uptake | minimal uptake
2 | completely degraded within four hours | DRVYIHPFHL [Angiotensin I, reference compound] |  |  | 
